ChEMBL document CHEMBL1156748, “Incorporation of water-solubilizing groups in pyrazolopyrimidine mTOR inhibitors: discovery of highly potent and selective analogs with improved human microsomal stability” (Bioorg Med Chem Lett, 2009)
Calls of active or inactive are those of the source. The calls are words filed in the database; no cut-off is given here.

Legend:
[1] = Selectivity ratio, IC50 for PI3Kalpha to IC50 for human FLAG-tagged mTOR
LNCaP = test: Antiproliferative activity against PTEN deficient human LNCAP cells after 3 days by MTS assay; assay type: functional, cell-based; conditions: 72 h
[2] = Antiproliferative activity against PTEN deficient human MDA468 cells after 3 days by MTS assay; assay type: functional, cell-based; conditions: MDA-MB-468, 72 h
[3] = target: Phosphatidylinositol 4,5-bisphosphate 3-kinase catalytic subunit alpha isoform (Homo sapiens, UniProt P42336); test: Binding affinity to PI3Kalpha by fluorescence polarization assay
[4] = Metabolic stability in human microsomes assessed as half life; assay type: ADME, Microsome
[5] = target: Serine/threonine-protein kinase mTOR (Homo sapiens, UniProt P42345); test: Inhibition of human FLAG-tagged mTOR expressed in HEK293 cells after 2 hrs by DELFIA; assay type: cell-based
[6] = Solubility at pH 3; assay type: physicochemical; conditions: buffer
[7] = Volume of distribution at steady state in nude mouse at 5 mg/kg, iv; assay type: ADME, organism-based; set-up: dose 5 mg/kg, route intravenous; conditions: in vivo, read-out: Vdss
[8] = AUC in nude mouse at 5 mg/kg, iv; assay type: ADME, organism-based; set-up: dose 5 mg/kg, route intravenous; conditions: plasma
[9] = Clearance in nude mouse at 5 mg/kg, iv; assay type: ADME, organism-based; set-up: dose 5 mg/kg, route intravenous; conditions: in vivo
[10] = Plasma concentration in nude mouse at 25 mg/kg, iv after 8 hrs; assay type: ADME, organism-based; set-up: dose 25 mg/kg, route intravenous
MDA-MB-361 [11] = test: Inhibition of mTORC2 in human MDA-MB-361 cells assessed as phosphorylated AKT S473 level at 25 nM
[12] = Metabolic stability in mouse microsomes assessed as half life; assay type: ADME, Microsome
Mus musculus [13] = test: Antitumor activity against human MDA-MB-361 cells xenografted in nude mouse assessed as inhibition of tumor growth at 10 to 25 mg/kg, iv administered daily; assay type: functional, organism-based
Mus musculus [14] = test: Inhibition of TORC1 in human MDA-MB-361 cells xenografted nude mouse assessed as p70-S6K level at 25 mg/kg, iv; assay type: functional, organism-based; set-up: dose 25 mg/kg
Mus musculus [15] = test: Inhibition of TORC2 in human MDA-MB-361 cells xenografted nude mouse assessed as p-AKT S473 level at 25 mg/kg, iv; assay type: functional, organism-based; set-up: dose 25 mg/kg
[16] = target: Phosphatidylinositol 4,5-bisphosphate 3-kinase catalytic subunit beta isoform (Homo sapiens, UniProt P42338); test: Inhibition of PI3Kbeta
[17] = target: Phosphatidylinositol 4,5-bisphosphate 3-kinase catalytic subunit gamma isoform (Homo sapiens, UniProt P48736); test: Inhibition of PI3Kgamma
Mus musculus [18] = test: Toxicity in nude mouse xenografted with human MDA-MB-361 cells at 10 to 25 mg/kg, iv administered daily; assay type: organism-based; set-up: dose 10-25 mg/kg, route intravenous; conditions: in vivo
MDA-MB-361 [19] = test: Antitumor activity against human MDA-MB-361 cells xenografted in nude mouse assessed as inhibition of tumor growth at 20 mg/kg, iv every 5 days for 21 days; assay type: functional, organism-based; set-up: dose 20 mg/kg
[20] = Half life in nude mouse at 5 mg/kg, iv; assay type: ADME, organism-based; set-up: dose 5 mg/kg, route intravenous; conditions: in vivo

Sequence of Phosphatidylinositol 4,5-bisphosphate 3-kinase catalytic subunit alpha isoform (P42336 whole entry, canonical isoform): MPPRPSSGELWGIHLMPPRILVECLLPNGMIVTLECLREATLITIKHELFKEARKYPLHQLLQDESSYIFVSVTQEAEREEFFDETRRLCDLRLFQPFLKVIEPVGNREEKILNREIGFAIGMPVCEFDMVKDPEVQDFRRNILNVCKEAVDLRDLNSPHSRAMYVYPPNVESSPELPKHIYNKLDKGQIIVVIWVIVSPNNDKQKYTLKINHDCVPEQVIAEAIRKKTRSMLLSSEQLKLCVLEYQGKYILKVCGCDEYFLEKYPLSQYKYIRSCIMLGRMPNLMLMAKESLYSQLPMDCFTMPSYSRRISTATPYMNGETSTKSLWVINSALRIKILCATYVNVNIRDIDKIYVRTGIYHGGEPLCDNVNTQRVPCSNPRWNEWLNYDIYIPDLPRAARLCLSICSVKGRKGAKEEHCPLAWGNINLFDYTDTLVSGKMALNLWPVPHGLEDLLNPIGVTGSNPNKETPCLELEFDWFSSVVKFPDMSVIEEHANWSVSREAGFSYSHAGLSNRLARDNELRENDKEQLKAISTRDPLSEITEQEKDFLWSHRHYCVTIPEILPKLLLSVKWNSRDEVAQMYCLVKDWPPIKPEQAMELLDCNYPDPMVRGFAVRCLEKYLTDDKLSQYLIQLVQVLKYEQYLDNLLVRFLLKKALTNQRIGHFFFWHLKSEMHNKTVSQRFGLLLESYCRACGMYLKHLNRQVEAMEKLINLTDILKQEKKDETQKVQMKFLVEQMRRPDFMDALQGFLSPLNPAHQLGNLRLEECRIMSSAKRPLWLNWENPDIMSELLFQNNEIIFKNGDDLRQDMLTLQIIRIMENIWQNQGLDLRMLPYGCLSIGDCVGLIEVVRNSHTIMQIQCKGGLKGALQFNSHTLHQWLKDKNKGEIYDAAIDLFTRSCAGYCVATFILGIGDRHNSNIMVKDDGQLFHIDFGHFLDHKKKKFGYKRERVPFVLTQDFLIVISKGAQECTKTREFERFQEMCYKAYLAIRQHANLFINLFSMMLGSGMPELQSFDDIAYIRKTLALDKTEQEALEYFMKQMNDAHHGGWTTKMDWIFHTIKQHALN
Sequence of Phosphatidylinositol 4,5-bisphosphate 3-kinase catalytic subunit beta isoform (P42338 whole entry, canonical isoform): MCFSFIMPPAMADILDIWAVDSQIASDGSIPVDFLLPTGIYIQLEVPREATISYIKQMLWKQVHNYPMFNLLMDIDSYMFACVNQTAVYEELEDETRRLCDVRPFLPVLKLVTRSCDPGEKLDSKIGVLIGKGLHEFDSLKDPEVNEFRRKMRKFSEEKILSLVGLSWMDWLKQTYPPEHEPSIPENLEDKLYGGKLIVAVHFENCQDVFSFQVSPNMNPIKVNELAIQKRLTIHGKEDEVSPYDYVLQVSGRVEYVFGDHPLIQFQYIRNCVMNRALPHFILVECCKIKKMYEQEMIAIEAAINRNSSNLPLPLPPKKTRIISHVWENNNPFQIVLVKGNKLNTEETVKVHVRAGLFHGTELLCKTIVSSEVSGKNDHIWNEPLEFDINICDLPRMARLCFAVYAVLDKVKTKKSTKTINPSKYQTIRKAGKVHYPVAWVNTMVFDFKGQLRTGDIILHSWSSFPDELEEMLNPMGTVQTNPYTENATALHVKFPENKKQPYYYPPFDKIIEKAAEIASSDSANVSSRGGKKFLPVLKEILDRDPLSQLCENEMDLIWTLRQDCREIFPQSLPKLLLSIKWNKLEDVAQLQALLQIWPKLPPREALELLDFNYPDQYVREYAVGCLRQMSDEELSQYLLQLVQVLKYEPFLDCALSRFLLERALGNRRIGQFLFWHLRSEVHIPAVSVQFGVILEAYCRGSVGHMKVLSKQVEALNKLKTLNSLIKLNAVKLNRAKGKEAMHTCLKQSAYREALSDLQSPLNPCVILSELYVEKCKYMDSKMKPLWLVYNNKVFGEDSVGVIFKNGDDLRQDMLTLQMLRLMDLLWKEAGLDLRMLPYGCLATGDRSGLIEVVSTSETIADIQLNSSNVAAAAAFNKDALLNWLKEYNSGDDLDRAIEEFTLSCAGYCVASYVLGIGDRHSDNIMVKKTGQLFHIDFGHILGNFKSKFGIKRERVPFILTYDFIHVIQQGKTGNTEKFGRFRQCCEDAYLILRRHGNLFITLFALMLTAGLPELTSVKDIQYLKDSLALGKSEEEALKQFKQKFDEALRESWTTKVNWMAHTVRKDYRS
Sequence of Phosphatidylinositol 4,5-bisphosphate 3-kinase catalytic subunit gamma isoform (P48736 whole entry, canonical isoform): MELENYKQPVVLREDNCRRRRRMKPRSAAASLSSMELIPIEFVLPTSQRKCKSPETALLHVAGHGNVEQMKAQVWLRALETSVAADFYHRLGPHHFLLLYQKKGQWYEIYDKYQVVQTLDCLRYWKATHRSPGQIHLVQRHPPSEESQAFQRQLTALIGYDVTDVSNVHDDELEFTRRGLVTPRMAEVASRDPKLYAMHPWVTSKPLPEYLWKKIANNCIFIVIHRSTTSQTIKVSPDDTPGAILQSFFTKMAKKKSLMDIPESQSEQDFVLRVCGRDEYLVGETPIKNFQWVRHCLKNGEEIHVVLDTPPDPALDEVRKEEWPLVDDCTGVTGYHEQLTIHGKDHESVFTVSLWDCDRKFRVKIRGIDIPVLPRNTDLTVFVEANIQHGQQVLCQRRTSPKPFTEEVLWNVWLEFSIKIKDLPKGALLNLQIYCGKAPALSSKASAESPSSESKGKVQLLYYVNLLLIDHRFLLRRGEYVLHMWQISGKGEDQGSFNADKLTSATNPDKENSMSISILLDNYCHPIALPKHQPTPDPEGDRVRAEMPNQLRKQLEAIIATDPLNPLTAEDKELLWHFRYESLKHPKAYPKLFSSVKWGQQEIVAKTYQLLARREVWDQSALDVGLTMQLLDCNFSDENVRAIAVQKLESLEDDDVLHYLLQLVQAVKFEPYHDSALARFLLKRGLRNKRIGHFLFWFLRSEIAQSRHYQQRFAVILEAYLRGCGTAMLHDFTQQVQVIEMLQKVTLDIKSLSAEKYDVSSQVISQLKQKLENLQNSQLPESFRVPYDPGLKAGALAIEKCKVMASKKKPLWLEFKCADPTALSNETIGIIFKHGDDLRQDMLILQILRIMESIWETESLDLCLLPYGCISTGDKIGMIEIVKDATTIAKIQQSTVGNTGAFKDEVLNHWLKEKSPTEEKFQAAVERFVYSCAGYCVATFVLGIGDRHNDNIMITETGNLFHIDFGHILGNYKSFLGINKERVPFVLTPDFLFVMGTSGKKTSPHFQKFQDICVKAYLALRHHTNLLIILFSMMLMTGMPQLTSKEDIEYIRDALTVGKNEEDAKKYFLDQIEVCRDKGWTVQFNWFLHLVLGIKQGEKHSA

| Structure (SMILES) | Ratio IC50 [1] | IC50 (LNCaP) [nM] | IC50 [2] [nM] | IC50 [3] [nM] | half-life [4] [min] | IC50 [5] [nM] | also measured |
| --- | --- | --- | --- | --- | --- | --- | --- |
| CN(C)CCn1ncc2c(N3CC4CCC(C3)O4)nc(-c3ccc(NC(=O)Nc4cccnc4)cc3)nc21 | 89 | 50 | 220 | – | – | – | – |
| CCn1ncc2c(N3CC4CCC(C3)O4)nc(-c3ccc(NC(=O)Nc4ccc(N(C)CCN(C)C)cc4)cc3)nc21 | 295 | 0.8 | 0.8 | 256 | 14 | 0.9 | – |
| CCn1ncc2c(N3CC4CCC(C3)O4)nc(-c3ccc(NC(=O)Nc4ccc(CN5CCN(C)CC5)cc4)cc3)nc21 | 451 | < 0.8 | 0.8 | 320 | > 30 | 0.7 | – |
| CCn1ncc2c(N3CC4CCC(C3)O4)nc(-c3ccc(NC(=O)NCCN(C)C)cc3)nc21 | 16 | 350 | 1250 | – | – | 51 | – |
| CCn1ncc2c(N3CC4CCC(C3)O4)nc(-c3ccc(NC(=O)Nc4ccc(CO)cc4)cc3)nc21 | 335 | < 0.7 | < 0.7 | – | 11 | 0.1 | – |
| CCn1ncc2c(N3CC4CCC(C3)O4)nc(-c3ccc(NC(=O)Nc4ccc(N5CCOCC5)cc4)cc3)nc21 | 972 | < 0.7 | < 0.7 | – | 6 | 0.2 | – |
| CCNC(=O)Nc1ccc(-c2nc(N3CC4CCC(C3)O4)c3cnn(CCN(C)C)c3n2)cc1 | 240 | 280 | 1800 | – | – | – | – |
| CCn1ncc2c(N3CC4CCC(C3)O4)nc(-c3ccc(NC(=O)Nc4ccc(CN(C)C)cc4)cc3)nc21 | 239 | 7 | 30 | 263 | 29 | 1.1 | – |
| CCn1ncc2c(N3CC4CCC(C3)O4)nc(-c3ccc(NC(=O)Nc4ccc(NCCN(C)C)cc4)cc3)nc21 | 122 | 2.8 | 7 | 207 | 14 | 1.7 | – |
| CCn1ncc2c(N3CC4CCC(C3)O4)nc(-c3ccc(NC(=O)Nc4ccc(N(C)C)nc4)cc3)nc21 | 282 | 6 | 80 | 282 | – | – | – |
| CCn1ncc2c(N3CC4CCC(C3)O4)nc(-c3ccc(NC(=O)Nc4ccc(CN)cc4)cc3)nc21 | 95 | < 0.8 | < 0.8 | 21 | > 30 | 0.2 | – |
| CCNC(=O)Nc1ccc(-c2nc(N3CC4CCC(C3)O4)c3cnn(CC)c3n2)cc1 | 2230 | 16 | 80 | – | – | 0.6 | – |
| CCn1ncc2c(N3CC4CCC(C3)O4)nc(-c3ccc(NC(=O)Nc4ccc(NC)nc4)cc3)nc21 | 302 | 17 | 200 | – | – | – | – |
| O=C(Nc1ccc(-c2nc(N3CC4CCC(C3)O4)c3cnn(CC(F)(F)F)c3n2)cc1)Nc1ccc(N2CCNCC2)cc1 | 318 | < 0.8 | 1 | 76 | – | 0.2 | – |
| CCn1ncc2c(N3CC4CCC(C3)O4)nc(-c3ccc(NC(=O)Nc4ccc(OCCN(C)C)cc4)cc3)nc21 | 172 | < 0.7 | 8 | 136 | > 30 | 0.8 | – |
| CCn1ncc2c(N3CC4CCC(C3)O4)nc(-c3ccc(NC(=O)Nc4ccc(N5CCOCC5)nc4)cc3)nc21 | 7300 | 0.8 | 8 | – | – | 0.3 | – |
| CCn1ncc2c(N3CC4CCC(C3)O4)nc(-c3ccc(NC(=O)Nc4ccc(C(=O)NN(C)C)cc4)cc3)nc21 | 350 | < 0.7 | < 0.7 | – | 23 | 0.3 | – |
| CCn1ncc2c(N3CC4CCC(C3)O4)nc(-c3ccc(NC(=O)Nc4cccnc4)cc3)nc21 | 1120 | < 0.8 | 1.2 | 148 | 4 | 0.1 | – |
| CCn1ncc2c(N3CC4CCC(C3)O4)nc(-c3ccc(NC(=O)Nc4ccc(N5CCN(C)CC5)cc4)cc3)nc21 | 188 | < 0.7 | < 0.7 | 51 | > 30 | 0.3 | – |
| CCn1ncc2c(N3CC4CCC(C3)O4)nc(-c3ccc(NC(=O)Nc4ccc(N5CCN(C)CC5)nc4)cc3)nc21 | 275 | < 0.7 | 0.8 | – | > 30 | 0.7 | solubility [6]: > 0.1 mg/mL |
| CCn1ncc2c(N3CC4CCC(C3)O4)nc(-c3ccc(NC(=O)Nc4ccc(C(=O)NN5CCCC5)cc4)cc3)nc21 | 586 | < 0.7 | 4 | – | > 30 | 0.2 | – |
| CCn1ncc2c(N3CC4CCC(C3)O4)nc(-c3ccc(NC(=O)Nc4ccc(OCCN5CCOCC5)nc4)cc3)nc21 | 383 | < 0.7 | 0.8 | – | – | 1 | solubility [6]: > 0.1 mg/mL |
| CCn1ncc2c(N3CC4CCC(C3)O4)nc(-c3ccc(NC(=O)Nc4ccc(CCO)cc4)cc3)nc21 | 570 | < 0.7 | < 0.7 | – | 10 | 0.1 | – |
| CN1CCN(c2ccc(NC(=O)Nc3ccc(-c4nc(N5CC6CCC(C5)O6)c5cnn(CC(F)(F)F)c5n4)cc3)cc2)CC1 | 237 | < 0.8 | 1.5 | 150 | 24 | 0.6 | Vd [7]: 1.2 L/kg; AUC [8]: 12.5 µg·h/mL; clearance [9]: 0.42 L/h/kg; concentration at 8 h [10]: 2.5 µg/mL; Activity (MDA-MB-361 [11]): Active; half-life [12]: > 30 min; Activity (Mus musculus [13]): Active; Activity (Mus musculus [14]): Active; Activity (Mus musculus [15]): Active; IC50 [16]: > 10000 nM; IC50 [17]: > 10000 nM; Activity (Mus musculus [18]): Non-toxic; Activity (MDA-MB-361 [19]): Active; half-life [20]: 174 min |
| CCn1ncc2c(N3CC4CCC(C3)O4)nc(-c3ccc(NC(=O)Nc4ccc(N5CCCC5)cc4)cc3)nc21 | 243 | 55 | 120 | – | 5 | – | – |
| CCn1ncc2c(N3CC4CCC(C3)O4)nc(-c3ccc(NC(=O)Nc4ccccc4)cc3)nc21 | 212 | 0.8 | 12 | 66 | 5 | – | – |
